Results on 28 compounds are retold here after patent publication US9873690B2, “3-indol substituted derivatives, pharmaceutical compositions and methods for use” (Pfizer Inc., priority 2015, dated 2018).

The target of the experiment is T1, hTDO2 (Homo sapiens, UniProt P48775).
T1 construct: endogenous in cells; host or cells: A172 human brain glioblastoma cells (ATCC CRL-1620)
T1 sequence (P48775 whole entry): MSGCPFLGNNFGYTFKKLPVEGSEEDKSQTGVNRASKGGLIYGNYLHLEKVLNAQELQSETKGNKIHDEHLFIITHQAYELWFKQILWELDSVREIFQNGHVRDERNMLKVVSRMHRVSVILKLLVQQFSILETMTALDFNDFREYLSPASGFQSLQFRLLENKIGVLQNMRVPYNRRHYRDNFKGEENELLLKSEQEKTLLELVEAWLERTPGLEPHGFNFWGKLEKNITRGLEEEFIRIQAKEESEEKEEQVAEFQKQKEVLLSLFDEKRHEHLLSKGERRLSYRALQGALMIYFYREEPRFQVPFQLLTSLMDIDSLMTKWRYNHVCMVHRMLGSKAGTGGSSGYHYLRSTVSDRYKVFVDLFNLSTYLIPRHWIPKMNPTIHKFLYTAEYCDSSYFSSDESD
The experiment is described as follows: Cellular assay for TDO2 activity determination in A172 cells. Format: cell-based. The settings on record: human glioblastoma A172 cells naturally expressing hTDO2; overnight incubation; kynurenine by absorbance at 480 nm. A digest of the protocol:
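A172 glioblastoma cells endogenously expressing hTDO2, 1.25×10^4 cells/well, incubated overnight at 37 °C, 5% CO2 in IMDM with 2% FBS and ten compound concentrations. Supernatant kynurenine measured after TCA treatment and Ehrlich's reagent (4-dimethylaminobenzaldehyde) by absorbance at 480 nm against a kynurenine standard curve, then curve-fitted.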
For orientation: IC50 means the concentration that gives 50% inhibition. A low value points to greater potency. With `CC(=O)NCC1NS(=O)(=O)c2ccc(-c3c[nH]c4cc(F)ccc34)cc21` (single isomer, unassigned; (-)) [Example 23, (−)-N-((5-(6-fluoro-1H-indol-3-yl)-1,1-dioxido-2,3-dihydrobenzo[d]isothiazol-3-yl)methyl)acetamide], the IC50 was 1020 nM. Under `CN(C)CC1NS(=O)(=O)c2ccc(-c3c[nH]c4cc(F)ccc34)cc21` (single isomer, unassigned; (-)) [Example 25, (−)-3-((dimethylamino)methyl)-5-(6-fluoro-1H-indol-3-yl)-2,3-dihydrobenzo[d]isothiazole 1,1-dioxide] stands 4980 nM. Under `CC(=O)N(C)CC1NS(=O)(=O)c2ccc(-c3c[nH]c4cc(F)ccc34)cc21` (single isomer, unassigned; (-)) [Example 28, (−)-N-((5-(6-fluoro-1H-indol-3-yl)-1,1-dioxido-2,3-dihydrobenzo[d]isothiazol-3-yl)methyl)-N-methylacetamide] stands 505 nM.

For `O=S1(=O)NC(CCO)c2cc(-c3c[nH]c4cc(F)ccc34)ccc21` (single isomer, unassigned; (-)) [Example 29, (−)-5-(6-fluoro-1H-indol-3-yl)-3-(2-hydroxyethyl)-2,3-dihydrobenzo[d]isothiazole 1,1-dioxide], half-maximal inhibition (IC50) required 126 nM. The result for `CNC(=O)CCN1C(C)c2cc(-c3c[nH]c4cc(F)ccc34)ccc2S1(=O)=O` (single isomer, unassigned; (-)) [Example 46, (−)-3-(5-(6-fluoro-1H-indol-3-yl)-3-methyl-1,1-dioxidobenzo[d]isothiazol-2(3H)-yl)-N-methylpropanamide] reads 328 nM; that for `CC1c2cc(-c3c[nH]c4cc(F)ccc34)ccc2S(=O)(=O)N1CCC(N)=O` (single isomer, unassigned; (-)) [Example 48, (−)-3-(5-(6-fluoro-1H-indol-3-yl)-3-methyl-1,1-dioxidobenzo[d]isothiazol-2(3H)-yl)propanamide], 77 nM. In turn, `CC1c2cc(-c3c[nH]c4cc(F)ccc34)ccc2S(=O)(=O)N1CCC(=O)N1CCNCC1` (single isomer, unassigned; (-)) [Example 50, (−)3-(5-(6-fluoro-1H-indol-3-yl)-3-methyl-1,1-dioxidobenzo[d]isothiazol-2(3H)-yl)-1-(piperazin-1-yl)propan-1-one] showed an IC50 of 336 nM.

As for `CC1c2cc(-c3c[nH]c4cc(F)ccc34)ccc2S(=O)(=O)N1C1CCNCC1` (single isomer, unassigned; (-)) [Example 51, (−)-5-(6-fluoro-1H-indol-3-yl)-3-methyl-2-(piperidin-4-yl)-2,3-dihydrobenzo[d]isothiazole 1,1-dioxide], half-maximal inhibition (IC50) was put at 186 nM.

`CC1c2cc(-c3c[nH]c4cc(F)ccc34)ccc2S(=O)(=O)N1CCS(C)(=O)=O` (single isomer, unassigned; (-)) [Example 54, (−)-5-(6-fluoro-1H-indol-3-yl)-3-methyl-2-(2-(methylsulfonyl)ethyl)-2,3-dihydrobenzo[d]isothiazole 1,1-dioxide] displayed an IC50 of 233 nM. The compound `CC1c2cc(-c3c[nH]c4cc(F)ccc34)ccc2S(=O)(=O)N1CC[S+](C)[O-]` (single isomer, unassigned; (-)) [Example 56, (−)-5-(6-fluoro-1H-indol-3-yl)-3-methyl-2-(2-(methylsulfinyl)ethyl)-2,3-dihydrobenzo[d]isothiazole 1,1-dioxide] showed an IC50 of 306 nM. For `CC1c2cc(-c3c[nH]c4cc(F)ccc34)ccc2S(=O)(=O)N1CC[S+](C)[O-]` (single isomer, unassigned; (-)) [Example 57, (−)-5-(6-fluoro-1H-indol-3-yl)-3-methyl-2-(2-(methylsulfinyl)ethyl)-2,3-dihydrobenzo[d]isothiazole 1,1-dioxide], the midpoint of inhibition, the IC50, lay at 61 nM. `CNS(=O)(=O)CCN1C(C)c2cc(-c3c[nH]c4cc(F)ccc34)ccc2S1(=O)=O` (single isomer, unassigned; (-)) [Example 59, (−)-2-(5-(6-fluoro-1H-indol-3-yl)-3-methyl-1,1-dioxidobenzo[d]isothiazol-2(3H)-yl)-N-methylethane-1-sulfonamide] had an IC50 of 425 nM. The result for `CC1c2cc(-c3c[nH]c4cc(F)ccc34)ccc2S(=O)(=O)N1CCS(N)(=O)=O` (single isomer, unassigned; (-)) [Example 62, (−)-2-(5-(6-fluoro-1H-indol-3-yl)-3-methyl-1,1-dioxidobenzo[d]-isothiazol-2(3H)-yl)ethane-1-sulfonamide] reads 67 nM. Compound `CC1c2cc(-c3c[nH]c4cc(F)ccc34)ccc2S(=O)(=O)N1CCO` (single isomer, unassigned; (-)) [Example 64, (−)-5-(6-fluoro-1H-indol-3-yl)-2-(2-hydroxyethyl)-3-methyl-2,3-dihydrobenzo[d]isothiazole 1,1-dioxide] showed an IC50 of 322 nM. The result for `CC1c2cc(-c3c[nH]c4cc(F)ccc34)ccc2S(=O)(=O)N1CCN1CCNCC1=O` (single isomer, unassigned; (-)) [Example 65, (−)1-(2-(5-(6-fluoro-1H-indol-3-yl)-3-methyl-1,1-dioxidobenzo[d]isothiazol-2(3H)-yl)ethyl)piperazin-2-one] reads 546 nM; that for `Cc1cc(O)n(CCN2C(C)c3cc(-c4c[nH]c5cc(F)ccc45)ccc3S2(=O)=O)n1` (single isomer, unassigned; (-)) [Example 68, (−)-5-(6-fluoro-1H-indol-3-yl)-2-(2-(5-hydroxy-3-methyl-1H-pyrazol-1-yl)ethyl)-3-methyl-2,3-dihydrobenzo[d]isothiazole 1,1-dioxide], 3460 nM.

For `CC1c2cc(-c3c[nH]c4cc(F)ccc34)ccc2S(=O)(=O)N1CCN1CCOC1=O` (single isomer, unassigned; (-)) [Example 70, (−)-3-(2-(5-(6-fluoro-1H-indol-3-yl)-3-methyl-1,1-dioxidobenzo[d]isothiazol-2(3H)-yl)ethyl)oxazolidin-2-one], the IC50 is 50 nM. The result for `CC(=O)N1CCC(N2C(C)c3cc(-c4c[nH]c5cc(F)ccc45)ccc3S2(=O)=O)CC1` (single isomer, unassigned; (-)) [Example 72, (−)-1-(4-(5-(6-fluoro-1H-indol-3-yl)-3-methyl-1,1-dioxidobenzo[d]isothiazol-2(3H)-yl)piperidin-1-yl)ethanone] reads 64 nM; that for `CC(=O)N1CCC(N2C(C)c3cc(-c4c[nH]c5cc(F)ccc45)ccc3S2(=O)=O)C1` (single isomer, unassigned; (-)) [Example 75, (−)-1-(3-(5-(6-fluoro-1H-indol-3-yl)-3-methyl-1,1-dioxidobenzo[d]isothiazol-2(3H)-yl)pyrrolidin-1-yl)ethanone], 49 nM; that for `CC(=O)N1CCC(N2C(C)c3cc(-c4c[nH]c5cc(F)ccc45)ccc3S2(=O)=O)C1` (single isomer, unassigned; (-)) [Example 76, (−)-1-(3-(5-(6-fluoro-1H-indol-3-yl)-3-methyl-1,1-dioxidobenzo[d]isothiazol-2(3H)-yl)pyrrolidin-1-yl)ethanone], 61 nM. For the compound `CC1c2cc(-c3c[nH]c4cc(F)ccc34)ccc2S(=O)(=O)N1CC1CCNCC1` (single isomer, unassigned; (-)) [Example 77, (−) 5-(6-fluoro-1H-indol-3-yl)-3-methyl-2-(piperidin-4-ylmethyl)-2,3-dihydrobenzo[d]isothiazole 1,1-dioxide], half-maximal inhibition (IC50) was put at 415 nM. Under `CC1c2cc(-c3c[nH]c4cc(F)ccc34)ccc2S(=O)(=O)N1CC1CCN(C)CC1` (single isomer, unassigned; (-)) [Example 79, (−)-5-(6-fluoro-1H-indol-3-yl)-3-methyl-2-((1-methylpiperidin-4-yl)methyl)-2,3-dihydrobenzo[d]isothiazole 1,1-dioxide] stands 258 nM; under `CC1c2cc(-c3c[nH]c4cc(F)ccc34)ccc2S(=O)(=O)N1C[C@@]1(C)CCC(=O)N1` (single isomer, unassigned; (-)) [Example 83], 152 nM; under `CC1c2cc(-c3c[nH]c4cc(F)ccc34)ccc2S(=O)(=O)N1C[C@@]1(C)CCC(=O)N1` (single isomer, unassigned; (-)) [Example 84], 389 nM. Take `CC1c2cc(-c3c[nH]c4cc(F)ccc34)ccc2S(=O)(=O)N1Cc1ncn(C)n1` (single isomer, unassigned; (-)) [Example 85, (−)-5-(6-fluoro-1H-indol-3-yl)-3-methyl-2-((1-methyl-1H-1,2,4-triazol-3-yl)methyl)-2,3-dihydrobenzo[d]isothiazole 1,1-dioxide]: the IC50 stood at 57 nM.

Take `CC1c2cc(-c3c[nH]c4cc(F)ccc34)ccc2S(=O)(=O)N1CC1(C)COC(=O)N1` (single isomer, unassigned; (-)) [Example 88, (−)-4-((5-(6-fluoro-1H-indol-3-yl)-3-methyl-1,1-dioxidobenzo[d]isothiazol-2(3H)-yl)methyl)-4-methyloxazolidin-2-one]: it took 68 nM to reach half-maximal inhibition (IC50). As for `CC1c2cc(-c3c[nH]c4cc(F)ccc34)ccc2S(=O)(=O)N1C1CNC1` (single isomer, unassigned; (-)) [Example 91, (−)-2-(azetidin-3-yl)-5-(6-fluoro-1H-indol-3-yl)-3-methyl-2,3-dihydrobenzo[d]isothiazole 1,1-dioxide], it took 260 nM to reach half-maximal inhibition (IC50). Regarding `CNC(=O)C(O)CN1C(C)c2cc(-c3c[nH]c4cc(F)ccc34)ccc2S1(=O)=O` (single isomer, unassigned; (-)) [Example 98, (−)-3-(5-(6-fluoro-1H-indol-3-yl)-3-methyl-1,1-dioxidobenzo[d]isothiazol-2(3H)-yl)-2-hydroxy-N-methylpropanamide], the IC50 stood at 115 nM.
